Laboratory results reported in ChEMBL document CHEMBL4715724, “Novel 5-substituted-2-anilinoquinolines with 3-(morpholino or 4-methylpiperazin-1-yl)propoxy moiety as broad spectrum antiproliferative agents: Synthesis, cell based assays and kinase screening” (Bioorg Med Chem Lett, 2016).

What was measured:
Assay type in all cases: functional
M14 = test: Growth inhibition of human M14 cells assessed as growth percentage at 10 uM measured after 48 hrs by sulforhodamine B assay relative to control; settings: read-out: Activity
TK-10 = test: cells; settings: Homo sapiens, time 48 hrs
Description: Growth inhibition of human TK-10 cells incubated for 48 hrs by sulforhodamine B assay

OVCAR-3 = test: cells; settings: Homo sapiens, time 48 hrs
Description: Growth inhibition of human OVCAR-3 cells incubated for 48 hrs by sulforhodamine B assay

[1] = test system: Panel NCI-60 (60 carcinoma cell lines); test: cells; settings: Homo sapiens, time 48 hrs
Description: Growth inhibition of human Panel NCI-60 (60 carcinoma cell lines) incubated for 48 hrs by sulforhodamine B assay

[2] = test system: Panel leukemia (Carcinoma cell lines); test: cells; settings: Homo sapiens, time 48 hrs
Description: Growth inhibition of human Panel leukemia (Carcinoma cell lines) incubated for 48 hrs by sulforhodamine B assay

CCRF-CEM = test: cells; settings: Homo sapiens, time 48 hrs
Description: Growth inhibition of human CCRF-CEM cells incubated for 48 hrs by sulforhodamine B assay

A498 = test: cells; settings: Homo sapiens, time 48 hrs
Description: Growth inhibition of human A498 cells incubated for 48 hrs by sulforhodamine B assay

[3] = test system: Panel colon (Carcinoma cell lines); test: cells; settings: Homo sapiens, time 48 hrs
Description: Growth inhibition of human Panel colon (Carcinoma cell lines) incubated for 48 hrs by sulforhodamine B assay

Hs-578T = test: cells; settings: Homo sapiens, time 48 hrs
Description: Growth inhibition of human Hs-578T cells incubated for 48 hrs by sulforhodamine B assay

cells = settings: Homo sapiens, Non-small cell lung cancer cell line; time 48 hrs
Description: Growth inhibition of human Non-small cell lung cancer cell line incubated for 48 hrs by sulforhodamine B assay

NCI-H226 = test: cells; settings: Homo sapiens, time 48 hrs
Description: Growth inhibition of human NCI-H226 cells incubated for 48 hrs by sulforhodamine B assay

MCF7 = test: cells; settings: Homo sapiens, time 48 hrs
Description: Growth inhibition of human MCF7 cells incubated for 48 hrs by sulforhodamine B assay

[4] = test system: Panel renal (Carcinoma cell lines); test: cells; settings: Homo sapiens, time 48 hrs
Description: Growth inhibition of human Panel renal (Carcinoma cell lines) incubated for 48 hrs by sulforhodamine B assay

NCI-H322M = test: cells; settings: Homo sapiens, time 48 hrs
Description: Growth inhibition of human NCI-H322M cells incubated for 48 hrs by sulforhodamine B assay

LOX IMVI = test: cells; settings: Homo sapiens, time 48 hrs
Description: Growth inhibition of human LOX IMVI cells incubated for 48 hrs by sulforhodamine B assay

NCI-H23 = test: cells; settings: Homo sapiens, time 48 hrs
Description: Growth inhibition of human NCI-H23 cells incubated for 48 hrs by sulforhodamine B assay

MDA-MB-231 = test: cells; settings: Homo sapiens, time 48 hrs
Description: Growth inhibition of human MDA-MB-231/ATCC cells incubated for 48 hrs by sulforhodamine B assay

HOP-62 = test: cells; settings: Homo sapiens, time 48 hrs
Description: Growth inhibition of human HOP-62 cells incubated for 48 hrs by sulforhodamine B assay

MDA-MB-468 = test: cells; settings: Homo sapiens, time 48 hrs
Description: Growth inhibition of human MDA-MB-468 cells incubated for 48 hrs by sulforhodamine B assay

PC-3 = test: cells; settings: Homo sapiens, time 48 hrs
Description: Growth inhibition of human PC-3 cells incubated for 48 hrs by sulforhodamine B assay

SNB-75 = test: cells; settings: Homo sapiens, time 48 hrs
Description: Growth inhibition of human SNB-75 cells incubated for 48 hrs by sulforhodamine B assay

OVCAR-8 = test: cells; settings: Homo sapiens, time 48 hrs
Description: Growth inhibition of human OVCAR-8 cells incubated for 48 hrs by sulforhodamine B assay

IGROV-1 = test: cells; settings: Homo sapiens, time 48 hrs
Description: Growth inhibition of human IGROV-1 cells incubated for 48 hrs by sulforhodamine B assay

HOP-92 = test: cells; settings: Homo sapiens, time 48 hrs
Description: Growth inhibition of human HOP-92 cells incubated for 48 hrs by sulforhodamine B assay

NCI-H460 = test: cells; settings: Homo sapiens, time 48 hrs
Description: Growth inhibition of human NCI-H460 cells incubated for 48 hrs by sulforhodamine B assay

SF-295 = test: cells; settings: Homo sapiens, time 48 hrs
Description: Growth inhibition of human SF-295 cells incubated for 48 hrs by sulforhodamine B assay

OVCAR-4 = test: cells; settings: Homo sapiens, time 48 hrs
Description: Growth inhibition of human OVCAR-4 cells incubated for 48 hrs by sulforhodamine B assay

U-251 = test: cells; settings: Homo sapiens, time 48 hrs
Description: Growth inhibition of human U-251 cells incubated for 48 hrs by sulforhodamine B assay

[5] = test system: Panel breast (Carcinoma cell lines); test: cells; settings: Homo sapiens, time 48 hrs
Description: Growth inhibition of human Panel breast (Carcinoma cell lines) incubated for 48 hrs by sulforhodamine B assay

KM12 = test: cells; settings: Homo sapiens, time 48 hrs
Description: Growth inhibition of human KM12 cells incubated for 48 hrs by sulforhodamine B assay

UACC-62 = test: cells; settings: Homo sapiens, time 48 hrs
Description: Growth inhibition of human UACC-62 cells incubated for 48 hrs by sulforhodamine B assay

UO-31 = test: cells; settings: Homo sapiens, time 48 hrs
Description: Growth inhibition of human UO-31 cells incubated for 48 hrs by sulforhodamine B assay

K562 = test: cells; settings: Homo sapiens, time 48 hrs
Description: Growth inhibition of human K562 cells incubated for 48 hrs by sulforhodamine B assay

786-0 = test: Growth inhibition of human 786-0 cells assessed as growth percentage at 10 uM measured after 48 hrs by sulforhodamine B assay relative to control; settings: read-out: Activity
[6] = test system: Panel prostate (Carcinoma cell lines); test: cells; settings: Homo sapiens, time 48 hrs
Description: Growth inhibition of human Panel prostate (Carcinoma cell lines) incubated for 48 hrs by sulforhodamine B assay

HT-29 = test: cells; settings: Homo sapiens, time 48 hrs
Description: Growth inhibition of human HT-29 cells incubated for 48 hrs by sulforhodamine B assay

SK-MEL-28 = test: cells; settings: Homo sapiens, time 48 hrs
Description: Growth inhibition of human SK-MEL-28 cells incubated for 48 hrs by sulforhodamine B assay

HCT-15 = test: cells; settings: Homo sapiens, time 48 hrs
Description: Growth inhibition of human HCT-15 cells incubated for 48 hrs by sulforhodamine B assay

HCT-116 = test: cells; settings: Homo sapiens, time 48 hrs
Description: Growth inhibition of human HCT-116 cells incubated for 48 hrs by sulforhodamine B assay

[7] = test system: Panel CNS (Carcinoma cell lines); test: cells; settings: Homo sapiens, time 48 hrs
Description: Growth inhibition of human Panel CNS (Carcinoma cell lines) incubated for 48 hrs by sulforhodamine B assay

[8] = test system: Panel ovarian (Carcinoma cell lines); test: cells; settings: Homo sapiens, time 48 hrs
Description: Growth inhibition of human Panel ovarian (Carcinoma cell lines) incubated for 48 hrs by sulforhodamine B assay

SR = test: cells; settings: Homo sapiens, time 48 hrs
Description: Growth inhibition of human SR cells incubated for 48 hrs by sulforhodamine B assay

[9] = test system: Panel melanoma (Carcinoma cell lines); test: cells; settings: Homo sapiens, time 48 hrs
Description: Growth inhibition of human Panel melanoma (Carcinoma cell lines) incubated for 48 hrs by sulforhodamine B assay

RXF 393 = test: cells; settings: Homo sapiens, time 48 hrs
Description: Growth inhibition of human RXF 393 cells incubated for 48 hrs by sulforhodamine B assay

SK-MEL-5 = test: Growth inhibition of human SK-MEL-5 cells assessed as growth percentage at 10 uM measured after 48 hrs by sulforhodamine B assay relative to control; settings: read-out: Activity
A549 = test: cells; settings: Homo sapiens, time 48 hrs
Description: Growth inhibition of human A549/ATCC cells incubated for 48 hrs by sulforhodamine B assay

NCI-H522 = test: cells; settings: Homo sapiens, time 48 hrs
Description: Growth inhibition of human NCI-H522 cells incubated for 48 hrs by sulforhodamine B assay

UACC-257 = test: cells; settings: Homo sapiens, time 48 hrs
Description: Growth inhibition of human UACC-257 cells incubated for 48 hrs by sulforhodamine B assay

[10] = read-out: LC50 (the source's name)

With `CC(C)c1ccc(Nc2ccc3c(OCCCN4CCOCC4)cccc3n2)cc1` the growth at 10 µM (M14) was 59.8%.

For `FC(F)(F)c1cc(Nc2ccc3c(OCCCN4CCOCC4)cccc3n2)ccc1Cl`, the GI50 (TK-10) was 3490 nM, the GI50 (OVCAR-3) was 2020 nM and the GI50 [1] was 2190 nM. It also gave a GI50 [2] of 1930 nM, a GI50 (CCRF-CEM) of 1630 nM and a GI50 (A498) of 3120 nM. It also gave a GI50 [3] of 1850 nM, a GI50 (Hs-578T) of 2970 nM and a GI50 (cells) of 2320 nM. For the same compound, the GI50 (NCI-H226) was 3540 nM, the GI50 (MCF7) was 1660 nM and the GI50 [4] was 2510 nM. It also gave a GI50 (NCI-H322M) of 2520 nM, a GI50 (LOX IMVI) of 1730 nM and a GI50 (NCI-H23) of 2000 nM. The GI50 (MDA-MB-231) was 1820 nM, the GI50 (HOP-62) was 1870 nM and the GI50 (MDA-MB-468) was 2170 nM. It also gave a GI50 (PC-3) of 2260 nM, a GI50 (SNB-75) of 1890 nM and a GI50 (OVCAR-8) of 4330 nM. The GI50 (IGROV-1) was 3960 nM, the GI50 (HOP-92) was 1240 nM and the GI50 (NCI-H460) was 2750 nM. For the same compound, the GI50 (SF-295) was 1890 nM, the GI50 (OVCAR-4) was 3070 nM and the GI50 (U-251) was 1800 nM. It also gave a GI50 [5] of 2210 nM, a GI50 (KM12) of 2070 nM and a GI50 (UACC-62) of 2050 nM. The GI50 (UO-31) was 1630 nM, the GI50 (K562) was 2140 nM and the growth at 10 µM (786-0) was 37.8%. For the same compound, the GI50 [6] was 2520 nM, the GI50 (HT-29) was 1740 nM and the GI50 (SK-MEL-28) was 1850 nM. The GI50 (HCT-15) was 1640 nM, the GI50 (HCT-116) was 2070 nM and the GI50 [7] was 1960 nM. For the same compound, the GI50 [8] was 3010 nM, the GI50 (SR) was 2140 nM and the GI50 [9] was 1950 nM. It also gave a GI50 (RXF 393) of 1780 nM.

`CN1CCN(CCCOc2cccc3nc(Nc4ccc(F)c(F)c4)ccc23)CC1` showed a GI50 (TK-10) of 2630 nM, a GI50 (OVCAR-3) of 4580 nM and a GI50 [1] of 2630 nM. It also gave a TGI [1] of 6760 nM, a CC50 [1, 10] of 16200 nM and a growth at 10 µM (SK-MEL-5) of -26.8%. For the same compound, the GI50 [2] was 2600 nM, the LC50 (50% lethal concentration) [2] was 21100 nM and the TGI [2] was 7090 nM. The GI50 (CCRF-CEM) was 2420 nM, the GI50 (A498) was 5660 nM and the GI50 [3] was 2110 nM. The TGI [3] was 5900 nM, the CC50 [3, 10] was 12200 nM and the GI50 (Hs-578T) was 4730 nM. It also gave a GI50 (cells) of 3170 nM, an LC50 (50% lethal concentration) (cells) of 18900 nM and a TGI (cells) of 7790 nM. The GI50 (NCI-H226) was 5510 nM, the GI50 (MCF7) was 3330 nM and the GI50 [4] was 4160 nM. For the same compound, the LC50 (lethal concentration 50%) [4] was 18900 nM, the TGI [4] was 8980 nM and the GI50 (NCI-H322M) was 3930 nM. For the same compound, the GI50 (LOX IMVI) was 1030 nM, the GI50 (NCI-H23) was 4670 nM and the GI50 (MDA-MB-231) was 937 nM. For the same compound, the GI50 (HOP-62) was 1250 nM, the GI50 (MDA-MB-468) was 2110 nM and the GI50 (PC-3) was 3830 nM. It also gave a GI50 (SNB-75) of 3920 nM, a GI50 (OVCAR-8) of 5130 nM and a GI50 (IGROV-1) of 5550 nM. It also gave a GI50 (A549) of 3500 nM, a GI50 (HOP-92) of 1430 nM and a GI50 (NCI-H460) of 2370 nM. It also gave a GI50 (SF-295) of 4640 nM, a GI50 (OVCAR-4) of 6420 nM and a GI50 (U-251) of 2680 nM. The GI50 [5] was 3140 nM, the TGI [5] was 7980 nM and the CC50 [5, 10] was 20300 nM. The GI50 (NCI-H522) was 1010 nM, the GI50 (KM12) was 2350 nM and the GI50 (UACC-62) was 700 nM. For the same compound, the GI50 (UO-31) was 4340 nM, the GI50 (K562) was 660 nM and the GI50 [6] was 4070 nM. For the same compound, the LC50 (concentration killing 50% of cells) [6] was 18000 nM, the TGI [6] was 8550 nM and the GI50 (HT-29) was 620 nM. It also gave a GI50 (SK-MEL-28) of 1080 nM, a GI50 (HCT-15) of 960 nM and a GI50 (HCT-116) of 3800 nM. The GI50 [7] was 4100 nM, the TGI [7] was 9090 nM and the CC50 [7, 10] was 16100 nM. For the same compound, the GI50 [8] was 5130 nM, the LC50 [8] was 20500 nM and the TGI [8] was 10800 nM. For the same compound, the GI50 (SR) was 870 nM, the GI50 [9] was 1690 nM and the LC50 [9] was 10500 nM. For the same compound, the TGI [9] was 4400 nM, the GI50 (UACC-257) was 660 nM and the GI50 (RXF 393) was 2110 nM.
